According to article PMC5071857, “A unique peptide deformylase platform to rationally design and challenge novel active compounds” (Scientific Reports, 2016):
Read-outs that look alike come from different tables or passages of the source.

Experiments:
[1] = biological target: T1, EcPDF (Escherichia coli, UniProt P0A6K3); experiment: PDF inhibition, formate dehydrogenase-coupled spectrophotometric assay (EcPDF); assay type: biochemical; settings: for EcPDF KI/KI*app: enhancement potency (slow tight-binding)
T1 construct: made in house
T1 sequence (P0A6K3 whole entry): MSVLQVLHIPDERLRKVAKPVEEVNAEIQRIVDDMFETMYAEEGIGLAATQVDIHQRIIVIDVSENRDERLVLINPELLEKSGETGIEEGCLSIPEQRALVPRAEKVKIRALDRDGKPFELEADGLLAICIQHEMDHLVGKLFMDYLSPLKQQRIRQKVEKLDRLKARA
Experimental: (§1) The formate released by the deformylation reaction is used by FDH to convert NAD in NADH, the production of which being measured over time at 340 nm and controlled temperature (37 °C). The 200 μL reaction mixture contained 50 mM HEPES-NaOH pH7.5, 12 mM NAD^+, 4.5 U/mL FDH, 1 mM NiCl2 and PDF enzyme (either 40 nM SaPDF or 10 nM EcPDF or 100 nM AtPDF1B) previously diluted in presence of 0.1 mg/mL BSA. The reaction was started by addition of 1–6 mM Fo-Met-Ala-Ser. Kinetics parameters (kcat, Km) were derived from iterative non-linear least square fits using the Michaelis-menten equation based on the experimental data (Sigma-Plot, Kinetics module).
(§2) 1/KI*app is the slope of the v0/vi curve in function of compound concentration, where v0 and vi are the initial reaction rates in absence and presence of compound, respectively.
(§3) Determination of KI values was performed with a slightly modified protocol: reaction was started by addition of enzyme instead of Fo-Met-Ala-Ser, the latter being directly added to the mixture containing increasing concentrations of each compound. No pre-incubation of enzyme in presence of compound was done. 1/KI is the slope of the v0/vi curve in function of compound concentration, where v0 and vi are the initial reaction rates in absence and presence of compound respectively.

[2] = test system: E. coli AG100; experiment: MIC by microdilution, E. coli AG100; assay type: cell-based; settings: 18 h at 37 °C, average of three assays; for MIC: Escherichia coli, AG100, without PMBN; for MIC AG100: with PMBN at 1/5 of its MIC
Text: (§4) Two E. coli strains, one B. subtilis strain, one S. aureus strain, one E. faecalis strain, one S. agalactiae strain and three Enterobacter aerogenes strains previously described were used. Briefly, AG100 was an E. coli wild type strain and AG100A its acrAB^- derivative. EA289 was a Kan^s derivative of an E. aerogenes multi-drug resistant (MDR) clinical isolate overexpressing AcrAB-TolC efflux pumps, and EA294 and EA298 its acrAB^- and tolC^- derivatives respectively. Strains were routinely grown at 37 °C on Luria-Bertani (LB) agar or in Mueller-Hinton II broth (MH), supplemented with kanamycine (50 μg.mL^−1) for AG100A, EA294 and EA298.
(§5) MIC values of antibiotics were determined by the microdilution method in liquid MH media in microplates in the absence or presence of chemosensitizers/modulators (e.g. PMBN, PAβN), as previously described. Permeabilization, blocking of efflux pumps, and isolates with different levels of porin or efflux expression were used to assess the involvement of the membrane barrier in antibiotic activity.
(§6) Susceptibilities were determined in 96-wells microplates with an inoculum of 2 × 10^5 cfu in 200 μL of MH broth containing two-fold serial dilutions of each antibiotics or compounds. Molecules were tested alone or in combination with other molecules in equimolar ratio. MICs were realized in the absence and in the presence of a membrane permeabilizer, the polymyxine B nonapeptide (PMBN) used at 51.2 mg/L (1/5 or 1/10 of its direct MIC previously determined). Actinonin and ciprofloxacin were used as internal antibiotic reference. […] Each test was systematically performed in triplicate. The average of three independent assays is presented in μg/mL in the respective tables.

[3] = test system: E. coli AG100A (AcrAB- derivative); experiment: MIC by microdilution, E. coli AG100A; assay type: cell-based; settings: for MIC: Escherichia coli, 18 h, read-out: MIC AG100A; for MIC AG100A: with PMBN at 1/5 of its MIC, 18 h at 37 °C, average of three assays
Text: as §4, §5, §6

[4] = test system: B. subtilis 168; experiment: MIC, B. subtilis 168; assay type: cell-based; settings: Bacillus subtilis
Text: as §4, §5, §6

[5] = test system: S. aureus SA113; experiment: MIC, S. aureus SA113; assay type: cell-based; settings: Staphylococcus aureus
Text: as §4, §5, §6

[6] = test system: E. faecalis EFA 103.214; experiment: MIC, E. faecalis EFA 103.214; assay type: cell-based; settings: Enterococcus faecalis, EFA103.214, read-out: MIC E. faecalis EFA 103.214
Text: as §4, §5, §6

[7] = biological target: T2, SaPDF (Streptococcus agalactiae serotype III, UniProt Q8E378, S2A); experiment: biochemical; settings: for Ki: SaPDF KI, no pre-incubation, assay initiated by addition of enzyme, 40 nM SaPDF, 37 °C
T2 construct: the recombinant protein contains all residues of the 204 amino acids mature protein; made in house; host or cells: E. coli Rosetta 2(DE3)pLysS
T2 sequence (Q8E378 whole entry S2A): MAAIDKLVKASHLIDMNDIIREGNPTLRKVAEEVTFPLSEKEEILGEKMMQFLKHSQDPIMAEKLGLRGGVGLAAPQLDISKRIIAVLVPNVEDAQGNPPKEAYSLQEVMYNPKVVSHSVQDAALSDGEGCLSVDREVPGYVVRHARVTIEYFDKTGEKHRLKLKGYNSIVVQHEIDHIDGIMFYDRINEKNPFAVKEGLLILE
Experimental: as §1, with “Enzymatic activity was measured by a spectrophotometric assay where peptide deformylase activity is coupled to that of formate dehydrogenase. The formate” for “The formate”
as §2, §3

[8] = biological target: T3, AtPDF1B (Arabidopsis thaliana, UniProt Q9FUZ2); experiment: PDF inhibition, formate dehydrogenase-coupled spectrophotometric assay (AtPDF1B); assay type: biochemical; settings: for IC50 / Ki: 100 nM AtPDF1B; for IC50: 2 mM Fo-Met-Ala-Ser, 10 min pre-incubation at 37 °C; for Ki: PDFI pre-incubated with enzyme 10 min at 37 °C, started by 2 mM Fo-Met-Ala-Ser, read-out: AtPDF1B KI*app; for AtPDF1B KI/KI*app: enhancement potency (slow tight-binding)
T3 construct: made in house
T3 sequence (Q9FUZ2 83-273): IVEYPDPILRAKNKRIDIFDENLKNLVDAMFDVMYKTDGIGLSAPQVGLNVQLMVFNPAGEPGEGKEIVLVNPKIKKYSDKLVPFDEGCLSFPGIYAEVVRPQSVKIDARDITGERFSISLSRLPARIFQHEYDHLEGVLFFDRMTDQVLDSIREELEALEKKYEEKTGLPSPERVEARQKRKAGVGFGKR
Experimental: as §1, with “Enzymatic activity was measured by a spectrophotometric assay where peptide deformylase activity is coupled to that of formate dehydrogenase. The formate” for “The formate”
as §2, §3

[9] = test system: E. aerogenes Ea289, MDR strain; experiment: MIC by microdilution, E. aerogenes Ea289; assay type: cell-based, Enterobacter aerogenes; settings: for MIC Ea289: +PMBN at 1/5 of its MIC, average of three assays; for MIC: Klebsiella aerogenes, 18 h, read-out: MIC Ea289
Text: as §4, §5, §6

[10] = test system: E. aerogenes Ea294, Ea289 derivative AcrAB-; experiment: MIC by microdilution, E. aerogenes Ea294; assay type: cell-based, Enterobacter aerogenes; settings: for MIC Ea294: +PMBN at 1/5 of its MIC, average of three assays; for MIC: Klebsiella aerogenes, 18 h, read-out: MIC Ea294
Text: as §4, §5, §6

[11] = test system: E. aerogenes Ea298, Ea289 derivative tolC-; experiment: MIC by microdilution, E. aerogenes Ea298; assay type: cell-based, Enterobacter aerogenes; settings: Klebsiella aerogenes, 18 h, read-out: MIC Ea298
Text: as §4, §5, §6

[12] = biological target: T2, SaPDF; experiment: biochemical; settings: SaPDF KI*app, PDFI pre-incubated with enzyme 10 min at 37 °C, started by 2 mM Fo-Met-Ala-Ser; 40 nM SaPDF
[13] = biological target: T3, AtPDF1B; experiment: PDF inhibition, formate dehydrogenase-coupled spectrophotometric assay (AtPDF1B); assay type: biochemical; settings: no pre-incubation, assay initiated by addition of enzyme; 100 nM AtPDF1B; 37 °C
[14] = 10 nM EcPDF, 2 mM Fo-Met-Ala-Ser, 10 min pre-incubation at 37 °C, read-out: IC50 EcPDF
[15] = EcPDF KI*app, PDFI pre-incubated with enzyme 10 min at 37 °C, started by 2 mM Fo-Met-Ala-Ser, 10 nM EcPDF
[16] = EcPDF KI, no pre-incubation, assay initiated by addition of enzyme, 10 nM EcPDF, 37 °C

| Structure (SMILES) | IC50 [1, 14] [nM] | MIC [2] [µg/mL] | MIC AG100 [2] [µg/mL] | MIC [3] [µg/mL] | MIC AG100A [3] [µg/mL] | MIC [4] [µg/mL] | MIC [5] [µg/mL] | MIC [6] [µg/mL] | IC50 [7] [nM] | Ki [7] [nM] | IC50 [1] [nM] | Ki [1, 15] [nM] | Ki [1, 16] [nM] | EcPDF KI/KI*app [1] | IC50 [8] [nM] | Ki [8] [nM] | AtPDF1B KI/KI*app [8] | MIC Ea289 [9] [µg/mL] | MIC [9] [µg/mL] | MIC Ea294 [10] [µg/mL] | also measured |
| --- | --- | --- | --- | --- | --- | --- | --- | --- | --- | --- | --- | --- | --- | --- | --- | --- | --- | --- | --- | --- | --- |
| CCCCC(CC(=O)NO)c1nc(C(N)=O)co1 (stereo not shown) [AT007] | 740 | > 64 | >64 | > 64 | >64 | > 64 | > 64 | > 64 |  |  |  |  |  |  |  |  |  |  |  |  |  |
| CCCC[C@H](CC(=O)NO)c1nc(C(=O)N[C@H](C(=O)OC)C(C)C)co1 [AT009] | 330 | > 64 | >64 | > 64 | >64 | > 64 | > 64 | > 64 |  |  |  |  |  |  |  |  |  |  |  |  |  |
| CCCC[C@H](CC(=O)NO)c1nc(C(=O)N[C@H](C(N)=O)C(C)C)co1 [AT010] | 420 | > 64 | >64 | > 64 | >64 | > 64 | > 64 | > 64 |  |  |  |  |  |  |  |  |  |  |  |  |  |
| O=C(C[C@@H](CC1CCCC1)c1nc(Cc2coc3ccccc23)no1)NO [AT019] |  | > 64 | 2 | 16 | 0.5 |  |  |  | 7 ± 1 | 65 ± 6 | 6 ± 1 | 1.1 ± 0.3 | 76 ± 4 | 69 | 77 ± 5 | 54 ± 2 | 5 | 16 | > 128 | 2 | MIC [10]: 128 µg/mL; MIC [11]: 64 µg/mL; Ki [12]: 7.5 ± 2 nM; Ki [13]: 263 ± 26 nM |
| O=C(C[C@@H](CC1CCCC1)c1nc(Cc2ccc3c(c2)OCO3)no1)NO [AT020] |  | > 64 | 8 | 16 | 4 |  |  |  | 12 ± 3 | 63 ± 3 | 7 ± 2 | 1.9 ± 0.2 | 80 ± 3 | 42 | 119 ± 10 | 123 ± 5 | 2 | 32 | > 128 | 8 | MIC [10]: 128 µg/mL; MIC [11]: 128 µg/mL; Ki [12]: 8.5 ± 3 nM; Ki [13]: 238 ± 30 nM |
